What was measured:
HEK293T cells = assay: Cell viability rate of transfected HEK293T cells at the time of immunofluorescence; format: cell-based
Method: The liquid culture medium containing HEK293T cells was added into a Petri dish. The HEK293T cells adhered spontaneously to the inner wall of the Petri dish.
The plasmid (RTP1S), the plasmid (Rho-myc-Olfr15), and a plasmid (purchased from Evrogen, trade name: pMkate2) coding for a membrane marker were added to the Petri dish, and the HEK293T cells were transfected with these three plasmids by a lipofection method. The liquid culture medium was maintained under an air atmosphere containing 5% CO2 under a temperature of 37 degrees Celsius. In this way, as shown in the uppermost part of FIG. 4, the vessel containing the transformed HEK293 cells and the liquid culture medium was prepared.
Twenty four hours after the transfection, a liquid culture medium containing chlorpromazine was added into the vessel. […]
Subsequently, the liquid culture medium was removed. Then, the liquid culture medium not containing chlorpromazine (see FIG. 2) was added to the vessel. Thus, the liquid culture medium was exchanged.
Four hours after the exchange of the liquid culture medium, the distribution of the mouse olfactory receptor Olfr15 on the cell membrane was evaluated in accordance with the immunofluorescence technique disclosed in Non Patent Literature 2. For example, the expression rate on the cell membrane and the cell viability rate were calculated in accordance with the following formulas. (Expression rate on the cell membrane)=(fluorescence intensity on the cell membrane)/(fluorescence intensity of one entire cell) (Cell viability rate)=(the number of the living cells when the immunofluorescence technique was performed)/(the number of all the cells when the immunofluorescence technique was performed)
For example, the expression rate and the cell viability rate of not less than ten cells were calculated. Then, each of the average value of these rates was calculated. “Expression rate on the cell membrane” and “Cell viability rate” described in Table 3 are the average rates thereof.

[1] = test system: mouse olfactory receptor Olfr15; assay: Expression rate of mouse olfactory receptor Olfr15 on the cell membrane of transfected HEK293T cells (immunofluorescence); format: cell-based
[2] = chlorpromazine 5 μg/ml, immersion time 0.5 hour
[3] = chlorpromazine 5 μg/ml, immersion time 1 hour
[4] = chlorpromazine 5 μg/ml, immersion time 2 hour
[5] = chlorpromazine 5 μg/ml, immersion time 4 hour
[6] = chlorpromazine 5 μg/ml, immersion time 9 hour
[7] = chlorpromazine 5 μg/ml, immersion time 20 hour
[8] = chlorpromazine 10 μg/ml, immersion time 0.5 hour
[9] = chlorpromazine 10 μg/ml, immersion time 1 hour
[10] = chlorpromazine 10 μg/ml, immersion time 2 hour
[11] = chlorpromazine 10 μg/ml, immersion time 4 hour
[12] = chlorpromazine 10 μg/ml, immersion time 9 hour
[13] = chlorpromazine 10 μg/ml, immersion time 20 hour
[14] = chlorpromazine 25 μg/ml, immersion time 0.5 hour
[15] = chlorpromazine 25 μg/ml, immersion time 1 hour
[16] = chlorpromazine 25 μg/ml, immersion time 2 hour

`CN(C)CCCN1c2ccccc2Sc2ccc(Cl)cc21` [chlorpromazine] was tested, and the “Cell viability rate (%)” value (HEK293T cells; [2]) was 81%, the “Cell viability rate (%)” value (HEK293T cells; [3]) was 88% and the “Cell viability rate (%)” value (HEK293T cells; [4]) was 89%. For the same compound, the “Cell viability rate (%)” value (HEK293T cells; [5]) was 82%, the “Cell viability rate (%)” value (HEK293T cells; [6]) was 79% and the “Cell viability rate (%)” value (HEK293T cells; [7]) was 68%. For the same compound, the “Cell viability rate (%)” value (HEK293T cells; [8]) was 89%, the “Cell viability rate (%)” value (HEK293T cells; [9]) was 82% and the “Cell viability rate (%)” value (HEK293T cells; [10]) was 84%. The “Cell viability rate (%)” value (HEK293T cells; [11]) was 81%, the “Cell viability rate (%)” value (HEK293T cells; [12]) was 41% and the “Cell viability rate (%)” value (HEK293T cells; [13]) was 50%. For the same compound, the “Cell viability rate (%)” value (HEK293T cells; [14]) was 89%, the “Cell viability rate (%)” value (HEK293T cells; [15]) was 55% and the “Cell viability rate (%)” value (HEK293T cells; [16]) was 41%. For the same compound, the “Cell viability rate (%)” value (HEK293T cells; chlorpromazine 25 μg/ml, immersion time 20 hour) was 11%, the “Expression rate on the cell membrane (%)” value ([1]; Comparative Example 2: as Example 1 (chlorpromazine 25 μg/ml, 20 hour) but plasmid (RTP1S) not used) was 9.7% and the “Expression rate on the cell membrane (%)” value [1, 2] was 11.8%. For the same compound, the “Expression rate on the cell membrane (%)” value [1, 3] was 8.1%, the “Expression rate on the cell membrane (%)” value [1, 4] was 12.3% and the “Expression rate on the cell membrane (%)” value [1, 5] was 8.5%. The “Expression rate on the cell membrane (%)” value [1, 6] was 11.5%, the “Expression rate on the cell membrane (%)” value [1, 7] was 14.1% and the “Expression rate on the cell membrane (%)” value [1, 8] was 9.6%. The “Expression rate on the cell membrane (%)” value [1, 9] was 9.9%, the “Expression rate on the cell membrane (%)” value [1, 10] was 19.7% and the “Expression rate on the cell membrane (%)” value [1, 11] was 16.7%. The “Expression rate on the cell membrane (%)” value [1, 12] was 17.4%, the “Expression rate on the cell membrane (%)” value [1, 13] was 19.2% and the “Expression rate on the cell membrane (%)” value [1, 14] was 15.1%. The “Expression rate on the cell membrane (%)” value [1, 15] was 29.5%, the “Expression rate on the cell membrane (%)” value [1, 16] was 24.0% and the “Expression rate on the cell membrane (%)” value ([1]; chlorpromazine 25 μg/ml, immersion time 20 hour, HEK293T with RTP1S and Rho-myc-Olfr15 plasmids, 4 h after medium exchange) was 28.4%. The “expression rate of the olfactory receptor Olfr15 on the cell membrane (change when added)” value ([1]; statement on Table 3, versus medium without chlorpromazine) was “increases”.

With `OC[C@H]1O[C@@](CO)(O[C@H]2O[C@H](CO)[C@@H](O)[C@H](O)[C@H]2O)[C@@H](O)[C@@H]1O` [sucrose] the “Expression rate on the cell membrane (%)” value ([1]; Comparative Example 4: sucrose 250 mM instead of chlorpromazine, otherwise as Example 1) was 12.5%.

Source: US8975078B2, “Method for expressing a mouse olfactory receptor Olfr15 on a cell membrane” (Panasonic Corporation, priority 2011, dated 2015)
